Data as given in PubChem BioAssay (NCI).
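Five concentrations, 48 hours, 96-well plates. GI50 is the concentration that inhibits growth by half. Definition used: TGI = concentration required for complete inhibition of growth.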

What was measured:
Test in all cases: DTP human tumour cell line panel, 48 h
[1] = system: HL-60(TB) leukemia
[2] = system: MDA-MB-231 breast
[3] = system: OVCAR-8 ovarian
[4] = system: T-47D breast
[5] = system: A498 renal
[6] = system: KM12 colon
[7] = system: UO-31 renal
[8] = system: SF-268 CNS
[9] = system: HCC-2998 colon
[10] = system: MALME-3M melanoma
[11] = system: COLO 205 colon
[12] = system: NCI-H460 lung
[13] = system: SK-MEL-5 melanoma
[14] = system: SK-MEL-2 melanoma
[15] = system: ACHN renal
[16] = system: SF-295 CNS
[17] = system: PC-3 prostate
[18] = system: NCI/ADR-RES ovarian
[19] = system: RPMI-8226 leukemia
[20] = system: MDA-MB-468 breast
[21] = system: SN12C renal
[22] = system: K-562 leukemia
[23] = system: TK-10 renal
[24] = system: UACC-62 melanoma
[25] = system: DU-145 prostate
[26] = system: SK-OV-3 ovarian
[27] = system: NCI-H522 lung
[28] = system: HOP-62 NSCLC
[29] = system: RXF 393 renal
[30] = system: EKVX NSCLC
[31] = system: BT-549 breast
[32] = system: SNB-75 CNS
[33] = system: CAKI-1 renal
[34] = system: MCF7 breast
[35] = system: SF-539 CNS
[36] = system: MOLT-4 leukemia
[37] = system: MDA-MB-435
[38] = system: OVCAR-4 ovarian
[39] = system: HT29 colon
[40] = system: IGROV1 ovarian
[41] = system: SNB-19 CNS
[42] = system: OVCAR-5 ovarian
[43] = system: NCI-H23 lung
[44] = system: CCRF-CEM leukemia
[45] = system: LOX IMVI melanoma
[46] = system: M14 melanoma
[47] = system: UACC-257 melanoma
[48] = system: OVCAR-3 ovarian
[49] = system: SW-620 colon
[50] = system: HS 578T breast
[51] = system: 786-0 renal
[52] = system: HOP-92 NSCLC
[53] = system: HCT-15 colon
[54] = system: HCT-116 colon
[55] = system: A549 NSCLC
[56] = system: SK-MEL-28 melanoma
[57] = system: U251 CNS
[58] = system: NCI-H226 lung

Question: COC(=O)C[C@](O)(CCCC(C)(C)O)C(=O)O[C@H]1C(OC)=C[C@@]23CCCN2CCc2cc4c(cc2[C@@H]13)OCO4 was tested. Which GI50 [1] did it give?
Answer: Its GI50 is 456 nM.

Question: What about the TGI [1] of the same compound?
Answer: Its TGI is 1740 nM.

Question: And the GI50 [2]?
Answer: Its GI50 is 2240 nM.

Question: What about the TGI [2] of the same compound?
Answer: The TGI was 12800 nM.

Question: What about the GI50 [3] of the same compound?
Answer: Its GI50 is 1420 nM.

Question: What about the TGI [3] of the same compound?
Answer: The TGI was 11900 nM.

Question: And the GI50 [4]?
Answer: Its GI50 is 1200 nM.

Question: What about the TGI [4] of the same compound?
Answer: Its TGI is 18500 nM.

Question: And the GI50 [5]?
Answer: The GI50 was 665 nM.

Question: And the TGI [5]?
Answer: The TGI was 3660 nM.

Question: What about the GI50 [6] of the same compound?
Answer: The GI50 was 1280 nM.

Question: And the TGI [6]?
Answer: Its TGI is 17500 nM.

Question: And the GI50 [7]?
Answer: The GI50 was 4550 nM.

Question: And the TGI [7]?
Answer: The TGI was 29800 nM.

Question: What about the GI50 [8] of the same compound?
Answer: Its GI50 is 2900 nM.

Question: And the TGI [8]?
Answer: Its TGI is 19500 nM.

Question: What about the GI50 [9] of the same compound?
Answer: The GI50 was 545 nM.

Question: And the TGI [9]?
Answer: The TGI was 1590 nM.

Question: What about the GI50 [10] of the same compound?
Answer: The GI50 was 691 nM.

Question: And the TGI [10]?
Answer: The TGI was 2110 nM.

Question: And the GI50 [11]?
Answer: Its GI50 is 1700 nM.

Question: What about the TGI [11] of the same compound?
Answer: The TGI was 6870 nM.

Question: What about the GI50 [12] of the same compound?
Answer: Its GI50 is 210 nM.

Question: What about the TGI [12] of the same compound?
Answer: Its TGI is 2620 nM.

Question: And the GI50 [13]?
Answer: Its GI50 is 614 nM.

Question: What about the TGI [13] of the same compound?
Answer: The TGI was 1470 nM.

Question: And the GI50 [14]?
Answer: The GI50 was 3230 nM.

Question: And the TGI [14]?
Answer: The TGI was 12800 nM.

Question: What about the GI50 [15] of the same compound?
Answer: The GI50 was 1770 nM.

Question: And the TGI [15]?
Answer: Its TGI is 16200 nM.

Question: And the GI50 [16]?
Answer: The GI50 was 1340 nM.

Question: And the TGI [16]?
Answer: Its TGI is 11800 nM.

Question: What about the GI50 [17] of the same compound?
Answer: The GI50 was 1140 nM.

Question: And the TGI [17]?
Answer: Its TGI is 9360 nM.

Question: What about the GI50 [18] of the same compound?
Answer: Its GI50 is greater than 38300 nM.

Question: What about the TGI [18] of the same compound?
Answer: The TGI was greater than 38300 nM.

Question: And the GI50 [19]?
Answer: The GI50 was 930 nM.

Question: What about the TGI [19] of the same compound?
Answer: The TGI was 2360 nM.

Question: What about the GI50 [20] of the same compound?
Answer: The GI50 was 613 nM.

Question: And the TGI [20]?
Answer: Its TGI is 2080 nM.

Question: What about the GI50 [21] of the same compound?
Answer: Its GI50 is 1610 nM.

Question: What about the TGI [21] of the same compound?
Answer: The TGI was 19600 nM.

Question: What about the GI50 [22] of the same compound?
Answer: The GI50 was 972 nM.

Question: And the TGI [22]?
Answer: Its TGI is greater than 38300 nM.

Question: And the GI50 [23]?
Answer: Its GI50 is 3030 nM.

Question: What about the TGI [23] of the same compound?
Answer: The TGI was 35700 nM.

Question: And the GI50 [24]?
Answer: Its GI50 is 1410 nM.

Question: What about the TGI [24] of the same compound?
Answer: Its TGI is 10600 nM.

Question: What about the GI50 [25] of the same compound?
Answer: Its GI50 is 1120 nM.

Question: What about the TGI [25] of the same compound?
Answer: Its TGI is 13400 nM.

Question: What about the GI50 [26] of the same compound?
Answer: Its GI50 is 1350 nM.

Question: And the TGI [26]?
Answer: Its TGI is 26400 nM.

Question: And the GI50 [27]?
Answer: Its GI50 is 858 nM.

Question: What about the TGI [27] of the same compound?
Answer: The TGI was 2320 nM.

Question: And the GI50 [28]?
Answer: The GI50 was 1500 nM.

Question: And the TGI [28]?
Answer: The TGI was 16200 nM.

Question: What about the GI50 [29] of the same compound?
Answer: Its GI50 is 447 nM.

Question: And the TGI [29]?
Answer: Its TGI is 1470 nM.

Question: And the GI50 [30]?
Answer: Its GI50 is 1670 nM.

Question: What about the TGI [30] of the same compound?
Answer: Its TGI is 16800 nM.

Question: And the GI50 [31]?
Answer: The GI50 was 823 nM.

Question: What about the TGI [31] of the same compound?
Answer: Its TGI is 2380 nM.

Question: What about the GI50 [32] of the same compound?
Answer: Its GI50 is 982 nM.

Question: And the TGI [32]?
Answer: Its TGI is 8370 nM.

Question: What about the GI50 [33] of the same compound?
Answer: The GI50 was 3000 nM.

Question: What about the TGI [33] of the same compound?
Answer: The TGI was 29700 nM.

Question: And the GI50 [34]?
Answer: Its GI50 is 524 nM.

Question: And the TGI [34]?
Answer: Its TGI is 2110 nM.

Question: And the GI50 [35]?
Answer: The GI50 was 673 nM.

Question: And the TGI [35]?
Answer: The TGI was 1780 nM.

Question: What about the GI50 [36] of the same compound?
Answer: The GI50 was 255 nM.

Question: What about the TGI [36] of the same compound?
Answer: The TGI was 2290 nM.

Question: And the GI50 [37]?
Answer: Its GI50 is 1250 nM.

Question: What about the TGI [37] of the same compound?
Answer: Its TGI is 6780 nM.

Question: What about the GI50 [38] of the same compound?
Answer: The GI50 was 1220 nM.

Question: What about the TGI [38] of the same compound?
Answer: Its TGI is 10300 nM.

Question: What about the GI50 [39] of the same compound?
Answer: The GI50 was 953 nM.

Question: And the TGI [39]?
Answer: The TGI was 6450 nM.

Question: What about the GI50 [40] of the same compound?
Answer: Its GI50 is 1320 nM.

Question: And the TGI [40]?
Answer: The TGI was 11400 nM.

Question: And the GI50 [41]?
Answer: Its GI50 is 757 nM.

Question: And the TGI [41]?
Answer: Its TGI is 3060 nM.

Question: What about the GI50 [42] of the same compound?
Answer: Its GI50 is 1550 nM.

Question: What about the TGI [42] of the same compound?
Answer: The TGI was 11100 nM.

Question: What about the GI50 [43] of the same compound?
Answer: The GI50 was 996 nM.

Question: What about the TGI [43] of the same compound?
Answer: Its TGI is 3310 nM.

Question: What about the GI50 [44] of the same compound?
Answer: Its GI50 is 856 nM.

Question: What about the TGI [44] of the same compound?
Answer: Its TGI is 3020 nM.

Question: What about the GI50 [45] of the same compound?
Answer: Its GI50 is 481 nM.

Question: And the TGI [45]?
Answer: The TGI was 1560 nM.

Question: And the GI50 [46]?
Answer: Its GI50 is 744 nM.

Question: What about the TGI [46] of the same compound?
Answer: Its TGI is 1880 nM.

Question: What about the GI50 [47] of the same compound?
Answer: Its GI50 is 1220 nM.

Question: And the TGI [47]?
Answer: The TGI was 8480 nM.

Question: What about the GI50 [48] of the same compound?
Answer: Its GI50 is 1010 nM.

Question: What about the TGI [48] of the same compound?
Answer: Its TGI is 4140 nM.

Question: What about the GI50 [49] of the same compound?
Answer: Its GI50 is 1150 nM.

Question: What about the TGI [49] of the same compound?
Answer: Its TGI is greater than 38300 nM.

Question: And the TGI [50]?
Answer: Its TGI is 9750 nM.

Question: And the GI50 [51]?
Answer: The GI50 was 1450 nM.

Question: And the TGI [51]?
Answer: The TGI was 9560 nM.

Question: What about the GI50 [52] of the same compound?
Answer: Its GI50 is 1150 nM.

Question: And the TGI [52]?
Answer: The TGI was 11700 nM.

Question: What about the GI50 [53] of the same compound?
Answer: Its GI50 is 4650 nM.

Question: What about the TGI [53] of the same compound?
Answer: The TGI was 21700 nM.

Question: And the GI50 [54]?
Answer: The GI50 was 717 nM.

Question: What about the TGI [54] of the same compound?
Answer: Its TGI is 3010 nM.

Question: And the GI50 [55]?
Answer: The GI50 was 999 nM.

Question: And the TGI [55]?
Answer: The TGI was 8720 nM.

Question: What about the GI50 [56] of the same compound?
Answer: The GI50 was 992 nM.

Question: And the TGI [56]?
Answer: The TGI was 4260 nM.

Question: What about the GI50 [57] of the same compound?
Answer: Its GI50 is 1000 nM.

Question: What about the TGI [57] of the same compound?
Answer: The TGI was 4810 nM.

Question: What about the GI50 [58] of the same compound?
Answer: The GI50 was 781 nM.

Question: What about the TGI [58] of the same compound?
Answer: Its TGI is 3560 nM.
